In a melting point compilation (Tetko et al.):

melting point [°C]	Structure (SMILES)
146 to 147	COC1(OC)CC[C@]2(C)[C@H]3CC[C@]4(C)CCC[C@@]4(O)[C@@H]3CC[C@@]2(C)C1
120 to 124	OC1OC(C2COC3(CCCCC3)O2)C2OC3(CCCCC3)OC12 (stereo not given)
100	O=C(C=NNc1ccccc1)c1ccc(C(=O)C=NNc2ccccc2)c([N+](=O)[O-])c1
320 to 322	NC1(C(=O)O)CCCC1
278	C=C1C(=O)C23C(OC(C)=O)CC4C(C)(C)CCC(OC(C)=O)C4(C)C2C(OC(C)=O)CC1(O)C3OC(C)=O (stereo not given)
111	Cc1cccc(N(C)C(=S)Oc2ccc3ccccc3c2)c1
29	C1CCCNCCC1
143	O=S1(=O)CC(Br)C(Br)C1 (stereo not given)
161	O=C(O)C#Cc1cc(Br)cc(/C=C/C(=O)O)c1
55	CC(C)COC(=O)c1ccc(C(=O)OCC(C)C)cc1
36 to 40	Cc1cc(Cl)ncc1[N+](=O)[O-]
151	COc1ccc(/C=C(\Oc2ccccc2)c2nc3ccccc3s2)cc1
172	COc1ccc(C=NC2=NC(C(F)(F)F)N=N2)cc1 (stereo not given)
67	COc1ccc(C#N)cc1OC
95 to 99	N#CCn1cnc(Cl)c1Cl
232 to 234	N#CC1=C(C#N)C(=O)C(NCc2ccccc2)=C(Cl)C1=O
122 to 123	Nc1ccc(Cl)nc1Cl
139	S=C(SN1CCOCC1)N1CCOCC1
107	O=C(OCc1ccccc1Br)ON1C(=O)CCC1=O
165 to 167	Cc1ccc(C(=O)OC(C(=O)O)C(OC(=O)c2ccc(C)cc2)C(=O)O)cc1 (single isomer, unassigned; (+))
79 to 82	COc1c(C(=O)Cl)csc1Br
119	CCCC(=O)Nc1ccc(OCC(O)CNC(C)C)c(C(C)=O)c1 (stereo not given)

melting point [°C]	Structure (SMILES)
133 to 136	CCSc1nnc(N)s1
68 to 70	Cn1nc(C(F)(F)F)cc1-c1ccc(S(=O)(=O)Cl)s1
104 to 106	Cn1ccnc1C(=O)O
169 to 174	COc1ccnc(-c2cc(OC)ccn2)c1
320	O=[N+]([O-])c1ccc(-c2nnc3n2CN(c2ccc([N+](=O)[O-])cc2)CS3)cc1
126	CCN1CCCC1CNC(=O)c1cc(S(=O)(=O)CC)c(N)cc1OC (stereo not given)
138	COc1cc(C(=O)NS(=O)(=O)c2ccccc2C)ccc1Cc1cn(C)c2ccc(NC(=O)OC3CCCC3)cc12
219 to 221	CC(=O)N[C@@H](Cc1ccccc1)C(=O)N[C@@H](Cc1cc(I)c(O)c(I)c1)C(=O)O
178	CCCCOc1c(-c2nnc(-c3ccc(Cl)cc3)o2)sc(-c2nnc(-c3ccc(Cl)cc3)o2)c1OCCCC
300 to 302	O=c1[nH]c2scc(-c3ccccc3)c2c(=O)n1-c1ccc(F)cc1
-100	CCSCCO
220 to 222	CCOC(=O)c1[nH]c(C)c(CO)c1C
178	COc1cc(C=C2CCCC(=Cc3ccc(O)c(OC)c3)C2=O)ccc1O
76 to 78	O=C(O)CCCc1ccc2c(c1)OCCO2
176 to 178	O=C(Oc1ccccc1)c1ccc(O)cc1
48 to 50	CC(=O)c1ccc(F)cc1Br
94	CCCCNC(=O)C(C(F)(F)F)C(F)(F)F
152	CC(CC(N)=O)n1nc2ccccc2n1 (stereo not given)
25.2	c1ccc(Cc2ccccc2)cc1
137	CC12CCC(C(C(c3ccccc3)c3ccccc3)C1=O)C2(C)C (stereo not given)
104	CC(=O)Nc1cccc(C=CC(=O)c2ccccc2)c1
177	CN(C)C(=O)NC1CC2CC1C1CCCC21 (stereo not given)

melting point [°C]	Structure (SMILES)
77 to 80	CC(C)(NC(=O)OCc1ccccc1)C(=O)O
146	CC(C)CCOc1ccc(NC(=S)Nc2ccc(OCCC(C)C)cc2)cc1
165 to 167	O=Cc1c(Cl)ccc([N+](=O)[O-])c1Cl
116	CC(=O)CCC1C(=O)N(c2ccccc2)N(c2ccccc2)C1=O
233	Cc1nc(N)nc2c1c(=O)n(-c1ccccc1)c1ccccc21
64 to 65	CC1(O)CSC(C)(O)CS1 (stereo not given)
83 to 85	NC(=S)c1ccccc1Br
160	O=C(Cn1c(=O)sc2ccc(Cl)cc21)N1CCN(CCO)CC1
181	N#Cc1c(C(F)(F)F)cc(-c2ccccc2)nc1S
181 to 186	OCc1cc(O)cc(O)c1
97	CCC(C=O)(CC)CCC#N
176	CC(=O)c1ccc(O)c(C(F)(F)F)c1
130	CC(C)NC(=O)COC(=O)c1ccccc1
96	CC(C)c1cc(C(C)C)c(S(=O)(=O)Cl)c(C(C)C)c1
54	OCc1cc(C(F)(F)F)cc(C(F)(F)F)c1
38	Cc1cc(Br)ncc1Br
226	c1ccc2c(c1)ccc1nc3c(ccc4ccccc43)cc12
115	c1ccc(COc2ccc3cc[nH]c3c2)cc1
121 to 122	S=C=Nc1ccc(N2CCOCC2)nc1
112 to 114	O=C(O)C(F)(F)C(F)(F)C(F)(F)C(F)(F)C(F)(F)C(F)(F)C(F)(F)C(F)(F)C(F)(F)C(F)(F)C(F)(F)F
68 to 70	C#Cc1ccc(C(C)=O)cc1
211	CC(C)N=c1cc2n(-c3ccc(Cl)cc3)c3ccccc3nc-2cc1Nc1ccc(Cl)cc1

melting point [°C]	Structure (SMILES)
68 to 70	CN(N)c1ccc(C(F)(F)F)cc1[N+](=O)[O-]
207	O=C(O)c1ccc(O)c(F)c1F
-73	CCCCCCC1CCCC1
91	Nc1cccc2cc[nH]c12
123	CN(CC(=O)N1CCOCC1)Cc1c(Cl)cccc1NC(=O)c1ccccc1
49 to 50	ClCc1csc(-c2ccccc2)n1
186 to 188	CN(C)C(=O)[C@@H](O)[C@H](O)C(=O)N(C)C
104	Cc1cccc(OCC(=O)O)c1
46	Cc1c(Cl)cc(Cl)c(O)c1Cl
106	Oc1ccc(O)c(Cc2ccccc2)c1
109	CCCCCCCCCCCCN1c2ccccc2C(C)(C)C12C=Cc1cc([N+](=O)[O-])ccc1O2 (stereo not given)
250	CC(=O)NCCCCC(N)C(=O)O (stereo not given)
146 to 149	COc1cc(O)cc(OC)c1OC
64 to 67	Cc1noc(-c2ccccc2CBr)n1
111	CC1(C)OC(C)(C(OC(=O)c2ccc(Br)cc2)C2CCCCC2)CCC1C(=O)O (stereo not given)
57	Cc1ccc(CCCC(=O)O)cc1
92	CC(=O)NCc1cnccc1C
188	CC(C)(C)N(NC(=O)c1ccccc1)C(=O)c1ccccc1I
300	CC(C)C[C@@H](N)C(=O)O
122	CC(CN1C(=O)c2cccnc2Nc2ccccc21)N(C)C (stereo not given)
59	OCC1CCNCC1
118	COP(=O)(CN1C(=O)c2ccccc2C1=O)OC

melting point [°C]	Structure (SMILES)
-20	CC(C)(C)CCl
137 to 139	O=C(Nc1ccccn1)c1ccccc1Cl
51 to 55	N#Cc1ccccc1OC1CCOCC1
70 to 72	Clc1ccc(OCc2ccccc2)cc1
313 to 315	Cc1n[nH]c2c(=O)n(-c3ccc(Cl)cc3)c(C)nc12
53 to 55	Ic1cccc(Cn2cncn2)c1
212 to 213	Cc1nnsc1-c1nnc(S)n1C1CC1
170	Cc1nc(/C(C#N)=C/c2ccc(F)cc2)sc1/N=N/c1c(Br)cc(Br)cc1Br
14	CC(C)(C)C(Br)Br
135	NC(=O)c1c(F)ccc(Cl)c1F
-77	C/C=C/Br
136 to 140	O=C(O)C12CC3CC(CC(Cl)(C3)C1)C2
211	O=Cc1c[nH]c2ccc(Cl)cc12
89	Cc1cc(-c2ccccc2)n2nc(C(F)(F)F)nc2n1
159 to 160	COC(=O)c1ccc(N)nc1
35 to 39	CCCCCCCCOc1ccc(N)cc1
150	CC(=O)Oc1cc(OC(C)=O)c2c(=O)c(OC(C)=O)c(-c3ccc(OCc4ccccc4)cc3)oc2c1
202 to 203	CCOC(=O)c1cc2c(=O)oc3ccccc3c2n(C)c1=O
133 to 135	Cc1nn(C)c2sc(CO)cc12
260	CCOC(=O)c1sc2sc(C#N)c(N)c2c1N

Structure (SMILES)	melting point [°C]
CCCCNC(=O)OCC(C)(CCC)COC(N)=O (stereo not given)	50
Cc1ccc(C(=O)Cl)o1	29
Fc1ccc2c3c([nH]c2c1)CNCC3	224
Cc1cccc2c1sc1c(C)cccc12	147 to 153
CC(C)c1ccc(C=C[N+](=O)[O-])cc1	35 to 38
Clc1cccc(C(Cl)(Cl)Cl)c1	0.6
CCC1C2CC3C4N(C)c5ccccc5C45CC(C2C5O)N3C1O (stereo not given)	159
Clc1cc2c(cc1Cl)Oc1cc(Cl)c(Cl)cc1O2	305
C#CC1(O)CCC2C3CCC4C(C)(C)CCCC4(C)C3CCC21C (stereo not given)	156 to 158
Cc1ccccc1P(c1ccccc1)c1ccccc1	72
Clc1ccc(CSC(Cn2cncn2)=Nc2ccc(Cl)cc2Cl)cc1	90
CC12CCC3C(CCC4CC(CC(=O)O)=CCC43C)C1CCC2=O (stereo not given)	175 to 178
CC12C=CC(=O)C=C1CCC1C2CCC2(C)C1CCC2(C)O (stereo not given)	164
OCC(F)(F)C(F)(F)CO	85 to 87
CCS(=O)(=O)Oc1ccc2c(c1)C(C)(C)CO2	30
CC12CCC3(CC1CCC1C2CCC2(C)C1CCC2(C)O)OCCO3 (stereo not given)	192 to 193
CC(C)N(C(=O)COc1nnc(C(F)(F)F)s1)c1ccc(F)cc1	78
